Measurements: US20230391729A1, “SUCCINATE SALTS OF N-(3-(4-(3-(DIISOBUTYLAMINO)PROPYL)PIPERAZIN-1-YL)PROPYL)-1H-BENZO[D]IMIDAZOL-2-AMINE, PREPARATION THEREOF AND USE OF THE SAME” (ALZPROTECT, priority 2020, published 2023)

Experiments:
α-syn aggregation = assay: α-synuclein aggregation in TH(+) neurons after MPP+ injury; type: cell-based, rat; conditions: MPP+ 4 μM 48 h
Description: Rat dopaminergic neurons were cultured as described by Visanji et al. in FASEB J. 2008, 22(7): 2488-2497 and Callizot et al., in Plos One 2019: https://doi.org/10.1371/journal.pone.0215277. Briefly, pregnant female rat (Wistar) of 15 days of gestation were killed using a deep anesthesia with CO2 chamber and a cervical dislocation. The midbrains obtained from 15-day-old rat embryos (Janvier, France) were dissected under a microscope. The embryonic midbrains were removed and placed in ice-cold medium of Leibovitz (L15) containing 2% of Penicillin-Streptomycin (PS) and 1% of BSA. The ventral portion of the mesencephalic flexure, a region of the developing brain rich in dopaminergic neurons, were used for the cell preparations. The midbrains were dissociated by trypsinization for 20 min at 37° C. (solution at a final concentration of 0.05% trypsin and 0.02% EDTA). The reaction was stopped by the addition of DMEM containing DNAase I grade II (0.5 mg/mL) and 10% of FCS. […] Viable cells were counted in a Neubauer cytometer using the trypan blue exclusion test. […]
(§1) The following read-outs were investigated: • neuron survival: total number of TH neurons (TH staining), • neurite network: total length of neurite network of TH positive neurons (in μm) • α-syn aggregation (area of overlapping between TH and α-syn staining in μm^2) […]

[1] = tested on: dopaminergic (TH positive) neurons; assay: Survival and neurite network of TH(+) mesencephalic neurons after rotenone injury; type: cell-based, rat; conditions: rotenone 10 nM 24 h
Description: Rat dopaminergic neurons were cultured as described by Visanji et al. in FASEB J. 2008, 22(7): 2488-2497 and Callizot et al., in Plos One 2019: https://doi.org/10.1371/journal.pone.0215277. Briefly, pregnant female rat (Wistar) of 15 days of gestation were killed using a deep anesthesia with CO2 chamber and a cervical dislocation. The midbrains obtained from 15-day-old rat embryos (Janvier, France) were dissected under a microscope. The embryonic midbrains were removed and placed in ice-cold medium of Leibovitz (L15) containing 2% of Penicillin-Streptomycin (PS) and 1% of BSA. The ventral portion of the mesencephalic flexure, a region of the developing brain rich in dopaminergic neurons, were used for the cell preparations. The midbrains were dissociated by trypsinization for 20 min at 37° C. (solution at a final concentration of 0.05% trypsin and 0.02% EDTA). The reaction was stopped by the addition of DMEM containing DNAase I grade II (0.5 mg/mL) and 10% of FCS. Cells were then mechanically dissociated by 3 passages through a 10 ml pipette. Cells were then centrifuged at 180×g for 10 min at +4° C. on a layer of BSA (3.5%) in L15 medium. The supernatant was discarded and the cell pellets were re-suspended in a defined culture medium consisting of Neurobasal supplemented with B27 (2%), L-glutamine (2 mM) and 2% of PS solution and 10 ng/mL of BDNF and 1 ng/mL of Glial-Derived Neurotrophic Factor (GDNF). Viable cells were counted in a Neubauer cytometer using the trypan blue exclusion test. The cells were seeded at a density of 40,000 cells/well in 96 well-plates (pre-coated with poly-L-lysine) and maintained in a humidified incubator at 37° C. in 5% CO2/95% air atmosphere. Half of the medium was changed every 2 days with fresh medium. […]
as §1

In the case of “N-(3-(4-(3-(diisobutylamino)propyl)piperazin-1-yl)propyl)-1H-benzo[d]imidazol-2-amine sesqui-succinate salt [sesqui-succinate salt Form 1]”, the α-syn aggregation (α-syn aggregation; coincubation, 50 or 100 nM) was “significantly reduced”, the α-syn aggregation (α-syn aggregation; pre-incubation, all tested concentrations) was “significantly reduced” and the “neuron survival: total number of TH neurons” value ([1]; administered directly with rotenone, all concentrations) was “significantly increased neuronal survival”. The “neurite network of TH positive neurons” value ([1]; pre and co-treatment, 10 to 100 nM) was “significantly improved” and the “neuron survival: total number of TH neurons” value ([1]; pre-incubated, 10 and 50 nM) was “significantly neuroprotective”.
